The values that follow come from article PMC7827085 (Pharmaceutics, 2021).

Like-named read-outs stand apart in the source and are kept apart here.

The test system of series [1] is OATP2B1. Details: method as in PMID 22541068. The conditions noted are these: 20 µM ivermectin, different test substrate; cited from earlier work.
For series [2], the target named is T1, ABCG2/BCRP (Homo sapiens, UniProt Q9UNQ0).
T1 sequence (Q9UNQ0 1-655): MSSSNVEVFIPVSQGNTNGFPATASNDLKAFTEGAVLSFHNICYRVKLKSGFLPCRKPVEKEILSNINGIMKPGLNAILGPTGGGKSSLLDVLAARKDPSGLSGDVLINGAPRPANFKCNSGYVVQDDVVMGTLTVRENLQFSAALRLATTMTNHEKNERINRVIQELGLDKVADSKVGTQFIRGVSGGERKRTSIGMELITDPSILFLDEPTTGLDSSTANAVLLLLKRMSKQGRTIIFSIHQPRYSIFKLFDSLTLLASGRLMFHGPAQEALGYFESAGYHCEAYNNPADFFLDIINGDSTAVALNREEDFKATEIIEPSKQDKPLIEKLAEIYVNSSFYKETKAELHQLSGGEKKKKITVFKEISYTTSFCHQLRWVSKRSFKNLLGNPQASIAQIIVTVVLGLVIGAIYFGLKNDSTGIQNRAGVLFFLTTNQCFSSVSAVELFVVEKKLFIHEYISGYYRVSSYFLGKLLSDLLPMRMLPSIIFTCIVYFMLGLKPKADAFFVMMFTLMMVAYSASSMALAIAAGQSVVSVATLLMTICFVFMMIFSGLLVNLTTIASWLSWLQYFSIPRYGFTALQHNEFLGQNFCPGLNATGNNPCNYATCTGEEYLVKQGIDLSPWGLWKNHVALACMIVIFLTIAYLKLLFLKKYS
Description: in vitro. The conditions noted are these: read-out: Estimated Transporter Inhibition IC50, ABCG2 cellular assay; PhenGreen-DA extrusion, PLB-985/ABCG2 cells; relative to 2.5 µM Ko143; '-' = no inhibition. On the procedure:
(§1) For the ABC transporter assays, we used both cell-based and membrane-based functional assays. […] The respective transport activities were assayed by measuring the cellular fluorescence of the respective transported substrates Phengreen (ABCG2) and Calcein (ABCB1 and ABCC1).
(§2) The cells were kept on ice until the flow cytometry measurements. All experiments were performed in triplicate and in at least three biological parallels. […] The PhenGreen (PG) or Calcein signal was detected in the BL1 channel (emission filter: 530/30 nm). Analysis of the data was carried out by the Attune Nxt Cytometer Software v3.1.2 (Thermo Fischer Scientific, Waltham, MA, USA). The inhibition of transporter activity was calculated by comparing the fluorescence in the presence of the test compound to that in the presence of a specific inhibitor providing maximum inhibition. […] Half-maximum inhibition (IC50) values were calculated by using the Origin2019 software (9.6.5.169, OriginLab Corporation, Northampton, MA, USA). […] In these experiments, we measured Hoechst dye extrusion in HeLa cells stably expressing eGFP and the ABCG2 variants driven by the same promoter—the transgenic cells generated by the Sleeping Beauty transposon system. […] For details, see Zámbó et al.). […] The maximum inhibition was defined for each variant as the fluorescence difference of the samples incubated with and without Ko143, respectively. […] Data analysis was performed using the Attune Nxt Cytometer Software v3.1.2. Two samples per condition and three biological replicates were examined in each experiment.
Here, we used both PhenGreen-SK diacetate and Hst dye for these measurements. The PhenGreen (PG) assay is a recently patented method applied for ensuring an efficient ABCG2 transport measurement, as the non-fluorescent PhenGreen diacetate (PG-DA) is actively extruded by ABCG2 and the cellular fluorescence is correlated with ABCG2 transport activity. Therefore, we applied this assay to characterize the test drug interactions in intact PLB-985 cells expressing high levels of the ABCG2 protein. […] ABCG2 inhibition by the test compounds was estimated by their relative (%) inhibition compared to full inhibition by Ko143.

For series [3], the target named is T2, OATP2B1 (Homo sapiens, UniProt O94956).
T2 sequence (O94956 1-709): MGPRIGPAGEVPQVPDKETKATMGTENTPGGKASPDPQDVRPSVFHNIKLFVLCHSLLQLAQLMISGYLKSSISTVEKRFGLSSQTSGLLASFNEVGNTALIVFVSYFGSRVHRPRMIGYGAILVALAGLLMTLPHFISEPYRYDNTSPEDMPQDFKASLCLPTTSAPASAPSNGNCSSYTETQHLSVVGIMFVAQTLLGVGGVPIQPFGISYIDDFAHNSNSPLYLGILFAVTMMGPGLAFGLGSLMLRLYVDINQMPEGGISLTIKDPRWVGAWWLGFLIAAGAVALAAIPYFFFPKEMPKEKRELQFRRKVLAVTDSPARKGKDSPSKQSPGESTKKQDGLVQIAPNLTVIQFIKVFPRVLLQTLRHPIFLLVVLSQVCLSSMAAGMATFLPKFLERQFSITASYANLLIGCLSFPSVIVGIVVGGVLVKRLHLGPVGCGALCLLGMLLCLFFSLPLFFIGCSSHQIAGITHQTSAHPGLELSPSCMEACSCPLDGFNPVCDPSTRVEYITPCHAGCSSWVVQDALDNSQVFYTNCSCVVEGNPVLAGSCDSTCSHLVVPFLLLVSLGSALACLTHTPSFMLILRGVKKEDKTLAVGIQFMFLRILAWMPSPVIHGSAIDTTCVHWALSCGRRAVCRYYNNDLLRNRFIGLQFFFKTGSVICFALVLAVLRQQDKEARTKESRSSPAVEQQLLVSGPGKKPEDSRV
The note with it: read-out: Estimated Transporter Inhibition IC50, OATP2B1 cellular assay; 20 µM pyranine uptake, 15 min, pH 5.5, A431-OATP2B1 cells; '-' = no interaction.

The target of series [4] is T1, ABCG2/BCRP. As to the kind of experiment: in vitro. The note with it: read-out: Estimated Transporter Inhibition IC50, ABCG2 vesicular assay; ATP-dependent lucifer yellow uptake, HEK-293/ABCG2 vesicles; relative to 1 µM Ko143; '-' = no inhibition. As for the experimental part: These were employed at 37 °C for 10 min (ABCG2), 1 min (ABCB1), or 3 min (ABCC1), with or without 4 mM Mg-ATP, in a 50 μL final volume. The known reference inhibitors of the transporters (1 µM Ko143 for ABCG2, 1 µM Valspodar for ABCB1, and 200 µM Benzbromarone for ABCC1) served as controls. Each test compound was dissolved in DMSO and a 1 µL volume was added to the samples. After incubation, the samples were filtered and washed, and the substrates in the vesicles were dissolved in 10% SDS and transferred onto another plate. After the addition of a stabilizer, the fluorescence was measured in plate readers (Victor X3 and Enspire Perkin-Elmer, Waltham, MA, USA), while the activity of the radiolabeled substrate was measured by liquid scintillation counting (Perkin Elmer MicroBeta2 liquid scintillation counter, Perkin Elmer, Waltham, MA, USA). ABC transporter-related vesicular transport was calculated by subtracting uptake measured in the presence of Mg-AMP from the values measured in the presence of Mg-ATP.
The effects of the test compounds on ABCG2 activity were also measured in a vesicular transport assay by using inverted membrane vesicles prepared from HEK-293 cells expressing high levels of the ABCG2 transporter.

For the next series, the system named is SARS-CoV-2. The note with it: cited from earlier work.
Series [5] has as its target T3, ABCB1/MDR1/Pgp (Homo sapiens, UniProt P08183). The conditions noted are these: read-out: Estimated Transporter Inhibition IC50, ABCB1 vesicular assay; ATP-dependent NMQ uptake, HEK-293/ABCB1 inverted membrane vesicles; '-' = no inhibition.
For series [6], the target named is T3, ABCB1/MDR1/Pgp. Description: in vitro. The conditions noted are these: read-out: Estimated Transporter Inhibition IC50, ABCB1 cellular assay; Calcein-AM extrusion, PLB-985/ABCB1 cells; relative to full inhibition by 0.25 µM tariquidar; '-' = no significant inhibition. As for the experimental part: as §1
The cells were kept on ice until the flow cytometry measurements. All experiments were performed in triplicate and in at least three biological parallels.
as §2
ABCB1 is a high-affinity active efflux transporter of the viability dye Calcein-AM (CaAM). […] Here, we applied this widely used cellular assay (see https://www.solvobiotech.com/services/categories/dye-efflux-assays) to characterize drug interactions of the applied compounds in intact PLB-985 cells, expressing high levels of the ABCB1 protein.

T3 sequence (P08183 whole entry): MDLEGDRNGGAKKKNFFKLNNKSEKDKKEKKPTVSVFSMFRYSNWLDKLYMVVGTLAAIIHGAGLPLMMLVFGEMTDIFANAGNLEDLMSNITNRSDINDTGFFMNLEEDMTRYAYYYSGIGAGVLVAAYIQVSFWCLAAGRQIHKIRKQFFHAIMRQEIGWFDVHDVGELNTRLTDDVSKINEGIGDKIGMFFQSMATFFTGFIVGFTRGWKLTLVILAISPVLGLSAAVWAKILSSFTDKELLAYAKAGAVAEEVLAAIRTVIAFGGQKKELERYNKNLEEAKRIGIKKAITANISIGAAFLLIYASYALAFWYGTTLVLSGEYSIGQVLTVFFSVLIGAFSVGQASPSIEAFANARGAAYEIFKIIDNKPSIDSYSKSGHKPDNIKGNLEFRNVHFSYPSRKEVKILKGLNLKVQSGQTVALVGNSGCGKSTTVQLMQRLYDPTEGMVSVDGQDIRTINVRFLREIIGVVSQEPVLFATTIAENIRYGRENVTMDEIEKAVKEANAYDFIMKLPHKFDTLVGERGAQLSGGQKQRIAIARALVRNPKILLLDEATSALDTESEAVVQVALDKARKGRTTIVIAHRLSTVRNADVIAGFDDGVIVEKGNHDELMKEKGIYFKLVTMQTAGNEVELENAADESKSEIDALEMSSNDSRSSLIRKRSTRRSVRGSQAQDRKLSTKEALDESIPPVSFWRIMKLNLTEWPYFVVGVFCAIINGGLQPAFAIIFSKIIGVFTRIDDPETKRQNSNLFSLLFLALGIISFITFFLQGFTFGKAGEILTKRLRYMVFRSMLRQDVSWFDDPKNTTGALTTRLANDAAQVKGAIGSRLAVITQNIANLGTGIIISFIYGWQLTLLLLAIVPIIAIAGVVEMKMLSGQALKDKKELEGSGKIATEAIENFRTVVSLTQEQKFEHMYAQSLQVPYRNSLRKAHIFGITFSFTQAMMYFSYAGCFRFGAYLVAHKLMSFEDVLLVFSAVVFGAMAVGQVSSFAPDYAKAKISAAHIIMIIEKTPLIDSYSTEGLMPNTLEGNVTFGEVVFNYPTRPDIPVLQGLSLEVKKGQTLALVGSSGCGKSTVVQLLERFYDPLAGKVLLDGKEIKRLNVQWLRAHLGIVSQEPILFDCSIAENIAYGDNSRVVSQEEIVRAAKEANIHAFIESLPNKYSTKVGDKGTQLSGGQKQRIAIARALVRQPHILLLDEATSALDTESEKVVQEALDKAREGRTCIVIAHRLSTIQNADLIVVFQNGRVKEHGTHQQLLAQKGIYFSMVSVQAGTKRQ

Regarding ivermectin, the “OATP2B1 inhibition found by Karlgren et al.” value in the series on OATP2B1 [1] is 39%. Further, the IC50 at ABCG2/BCRP [2] is 3100 nM; at OATP2B1 [3] it was 8600 nM; on ABCG2/BCRP [4], 1100 nM; on ABCB1/MDR1/Pgp [5] it was 300 nM; on ABCB1/MDR1/Pgp [6] it was 600 nM. The “Plasma concentrations required to reach an in vitro antiviral efficacy” value in the series on SARS-CoV-2 is 2 to 10 µM.
